The values that follow come from ChEMBL document CHEMBL1128274, “6-Aminoquinolones: a new class of quinolone antibacterials?” (1995).

≈ marks a conversion by molar mass, not a printed value.

As usually defined, the MIC is the smallest concentration in the dilution series that meets the test's criterion for growth inhibition.

The first experiment concerns Acinetobacter calcoaceticus. The experiment in a line: Tested in vitro for inhibitory activity against gram negative bacteria Acinetobacter calcoaceticus OSMPV 113 strain. The format is functional.
On to `CN1CCN(c2nc3c(c(N)c2N)c(=O)c(C(=O)O)cn3C2CC2)CC1`, for which the MIC was 0.5 µg/mL (≈ 1.4 µM).
`CC(C)(C)n1cc(C(=O)O)c(=O)c2cc(N)c(N3CCCC3)cc21`: the MIC is 16 µg/mL (≈ 48.6 µM).
As to `N#CCN1CCN(c2cc3c(cc2N)c(=O)c(C(=O)O)cn3C2CC2)CC1`, the minimal inhibitory concentration (MIC) is 64 µg/mL (≈ 174 µM).
For `Nc1cc2c(=O)c(C(=O)O)cn(C3CC3)c2cc1N1CCNCC1`, the MIC was 16 µg/mL (≈ 48.7 µM).
Take `O=C(O)c1cn(C2CC2)c2cc(N3CCNCC3)c(F)cc2c1=O` [CIPROFLOXACIN]: the MIC is 0.06 µg/mL (≈ 0.181 µM).

Another experiment deals with Enterobacter cloacae. The experiment can be described thus: Tested in vitro for inhibitory activity against gram negative bacteria Enterobacter cloacae OMNFI 174 strain. The format is functional.
In turn, `CN1CCN(c2nc3c(c(N)c2N)c(=O)c(C(=O)O)cn3C2CC2)CC1` came in with an MIC of 0.25 µg/mL (≈ 0.698 µM).
Molecule `CC(C)(C)n1cc(C(=O)O)c(=O)c2cc(N)c(N3CCCC3)cc21` gave an MIC of 16 µg/mL (≈ 48.6 µM).
`N#CCN1CCN(c2cc3c(cc2N)c(=O)c(C(=O)O)cn3C2CC2)CC1` gave an MIC of 2 µg/mL (≈ 5.44 µM).
Still for that read-out and setting: as for `Nc1cc2c(=O)c(C(=O)O)cn(C3CC3)c2cc1N1CCNCC1`, the figure is 0.25 µg/mL (≈ 0.761 µM).

In a further experiment the test system is Escherichia coli. The experiment in a line: Tested in vitro for inhibitory activity against gram negative bacteria Escherichia coli ATCC 8739 strain. The format is functional.
Regarding `CN1CCN(c2nc3c(c(N)c2N)c(=O)c(C(=O)O)cn3C2CC2)CC1`, the lowest concentration to inhibit growth (MIC) was 0.25 µg/mL (≈ 0.698 µM).
Molecule `CC(C)(C)n1cc(C(=O)O)c(=O)c2cc(N)c(N3CCCC3)cc21` had an MIC of 0.12 µg/mL (≈ 0.364 µM).
On the same count and under the same terms, the result for `N#CCN1CCN(c2cc3c(cc2N)c(=O)c(C(=O)O)cn3C2CC2)CC1` reads 4 µg/mL (≈ 10.9 µM); that for `Nc1cc2c(=O)c(C(=O)O)cn(C3CC3)c2cc1N1CCNCC1`, 0.25 µg/mL (≈ 0.761 µM).

The subject of a further experiment is Escherichia coli. The experiment in a line: Tested in vitro for inhibitory activity against gram negative bacteria Escherichia coli ISF 432 strain. It is filed as functional.
The molecule `CN1CCN(c2nc3c(c(N)c2N)c(=O)c(C(=O)O)cn3C2CC2)CC1` gave a minimum inhibitory concentration (MIC) of 0.01 µg/mL (≈ 0.0279 µM).
The same measure, in the same setting: the result for `CC(C)(C)n1cc(C(=O)O)c(=O)c2cc(N)c(N3CCCC3)cc21` reads 0.12 µg/mL (≈ 0.364 µM).
The molecule `N#CCN1CCN(c2cc3c(cc2N)c(=O)c(C(=O)O)cn3C2CC2)CC1` showed an MIC of 2 µg/mL (≈ 5.44 µM).
In the case of `Nc1cc2c(=O)c(C(=O)O)cn(C3CC3)c2cc1N1CCNCC1`, the MIC turned out to be 0.03 µg/mL (≈ 0.0914 µM).

In the next experiment the test system is Shigella. The experiment in a line: Tested in vitro for inhibitory activity against gram negative bacteria Shigella enteritidis. The format is functional.
Molecule `CN1CCN(c2nc3c(c(N)c2N)c(=O)c(C(=O)O)cn3C2CC2)CC1` yielded an MIC of 0.25 µg/mL (≈ 0.698 µM).
For `CC(C)(C)n1cc(C(=O)O)c(=O)c2cc(N)c(N3CCCC3)cc21`, the minimal inhibitory concentration (MIC) came to 32 µg/mL (≈ 97.1 µM).
Take `N#CCN1CCN(c2cc3c(cc2N)c(=O)c(C(=O)O)cn3C2CC2)CC1`: the MIC was 32 µg/mL (≈ 87.1 µM).
`Nc1cc2c(=O)c(C(=O)O)cn(C3CC3)c2cc1N1CCNCC1`: inhibition of growth (MIC) required 0.5 µg/mL (≈ 1.52 µM).
Still for that read-out and setting: as for `O=C(O)c1cn(C2CC2)c2cc(N3CCNCC3)c(F)cc2c1=O` [CIPROFLOXACIN], the figure is 0.03 µg/mL (≈ 0.0905 µM).

The next experiment relates to Staphylococcus epidermidis. The experiment in a line: Tested in vitro for inhibitory activity against gram positive bacteria Staphylococcus epidermidis HCF berset C strain. It is filed as functional.
As for `CN1CCN(c2nc3c(c(N)c2N)c(=O)c(C(=O)O)cn3C2CC2)CC1`, the lowest concentration to inhibit growth (MIC) was 2 µg/mL (≈ 5.58 µM).
Turning to `CC(C)(C)n1cc(C(=O)O)c(=O)c2cc(N)c(N3CCCC3)cc21`, the minimum inhibitory concentration (MIC) turned out to be 8 µg/mL (≈ 24.3 µM).
Same read-out and setting: as for `N#CCN1CCN(c2cc3c(cc2N)c(=O)c(C(=O)O)cn3C2CC2)CC1`, the figure is 64 µg/mL (≈ 174 µM); as for `Nc1cc2c(=O)c(C(=O)O)cn(C3CC3)c2cc1N1CCNCC1`, 16 µg/mL (≈ 48.7 µM).
`O=C(O)c1cn(C2CC2)c2cc(N3CCNCC3)c(F)cc2c1=O` [CIPROFLOXACIN] showed a minimal inhibitory concentration (MIC) of 0.12 µg/mL (≈ 0.362 µM).

A further experiment deals with Staphylococcus aureus. The experiment can be described thus: Tested in vitro for inhibitory activity against gram positive bacteria Staphylococcus aureus ATCC 6538 strain. It is filed as functional.
The molecule `CN1CCN(c2nc3c(c(N)c2N)c(=O)c(C(=O)O)cn3C2CC2)CC1` displayed an MIC of 2 µg/mL (≈ 5.58 µM).
Regarding `CC(C)(C)n1cc(C(=O)O)c(=O)c2cc(N)c(N3CCCC3)cc21`, the MIC came out at 4 µg/mL (≈ 12.1 µM).
The molecule `N#CCN1CCN(c2cc3c(cc2N)c(=O)c(C(=O)O)cn3C2CC2)CC1` showed an MIC of 64 µg/mL (≈ 174 µM).
The molecule `Nc1cc2c(=O)c(C(=O)O)cn(C3CC3)c2cc1N1CCNCC1` returned an MIC of 64 µg/mL (≈ 195 µM).
`O=C(O)c1cn(C2CC2)c2cc(N3CCNCC3)c(F)cc2c1=O` [CIPROFLOXACIN] registered an MIC of 0.12 µg/mL (≈ 0.362 µM).

A further experiment has as its system Staphylococcus aureus. The experiment can be described thus: Tested in vitro for inhibitory activity against gram positive bacteria Staphylococcus aureus MPR 5 strain. The format is functional.
Regarding `CN1CCN(c2nc3c(c(N)c2N)c(=O)c(C(=O)O)cn3C2CC2)CC1`, inhibition of growth (MIC) required 2 µg/mL (≈ 5.58 µM).
For `CC(C)(C)n1cc(C(=O)O)c(=O)c2cc(N)c(N3CCCC3)cc21`, it took 8 µg/mL (≈ 24.3 µM) to inhibit growth (MIC).
In turn, `N#CCN1CCN(c2cc3c(cc2N)c(=O)c(C(=O)O)cn3C2CC2)CC1` registered an MIC of 64 µg/mL (≈ 174 µM).
With `Nc1cc2c(=O)c(C(=O)O)cn(C3CC3)c2cc1N1CCNCC1`, the MIC worked out at 64 µg/mL (≈ 195 µM).
The same measure, in the same setting: as for `O=C(O)c1cn(C2CC2)c2cc(N3CCNCC3)c(F)cc2c1=O` [CIPROFLOXACIN], the figure is 0.12 µg/mL (≈ 0.362 µM).

For another experiment, the system named is Enterococcus faecalis. The experiment can be described thus: Tested in vitro for inhibitory activity against gram positive bacteria Streptococcus faecalis LEP Br strain. It is filed as functional.
`CN1CCN(c2nc3c(c(N)c2N)c(=O)c(C(=O)O)cn3C2CC2)CC1` yielded an MIC of 8 µg/mL (≈ 22.3 µM).
Consider `CC(C)(C)n1cc(C(=O)O)c(=O)c2cc(N)c(N3CCCC3)cc21`, for which the MIC is 128 µg/mL (≈ 389 µM).
Turning to `Nc1cc2c(=O)c(C(=O)O)cn(C3CC3)c2cc1N1CCNCC1`, it took 128 µg/mL (≈ 390 µM) to inhibit growth (MIC).
As to `O=C(O)c1cn(C2CC2)c2cc(N3CCNCC3)c(F)cc2c1=O` [CIPROFLOXACIN], the minimal inhibitory concentration (MIC) turned out to be 0.5 µg/mL (≈ 1.51 µM).

For another experiment, the system named is Staphylococcus epidermidis. The experiment can be described thus: Tested in vitro for inhibitory activity against gram positive bacteria Staphylococcus epidermidis CPHL A2 strain. The format is functional.
Regarding `CN1CCN(c2nc3c(c(N)c2N)c(=O)c(C(=O)O)cn3C2CC2)CC1`, inhibition of growth (MIC) required 2 µg/mL (≈ 5.58 µM).
As for `CC(C)(C)n1cc(C(=O)O)c(=O)c2cc(N)c(N3CCCC3)cc21`, the MIC was determined as 8 µg/mL (≈ 24.3 µM).
Molecule `N#CCN1CCN(c2cc3c(cc2N)c(=O)c(C(=O)O)cn3C2CC2)CC1` gave a minimum inhibitory concentration (MIC) of 64 µg/mL (≈ 174 µM).
Regarding `Nc1cc2c(=O)c(C(=O)O)cn(C3CC3)c2cc1N1CCNCC1`, the lowest concentration to inhibit growth (MIC) was 16 µg/mL (≈ 48.7 µM).
Turning to `O=C(O)c1cn(C2CC2)c2cc(N3CCNCC3)c(F)cc2c1=O` [CIPROFLOXACIN], the minimal inhibitory concentration (MIC) came out at 0.06 µg/mL (≈ 0.181 µM).

The next experiment has as its system Klebsiella pneumoniae. The experiment in a line: Tested in vitro for inhibitory activity against gram negative bacteria Klebsiella pneumoniae ATCC 10031 strain. It is filed as functional.
On to `CN1CCN(c2nc3c(c(N)c2N)c(=O)c(C(=O)O)cn3C2CC2)CC1`, for which the minimum inhibitory concentration (MIC) was determined as 0.01 µg/mL (≈ 0.0279 µM).
On the same count and under the same terms, as for `CC(C)(C)n1cc(C(=O)O)c(=O)c2cc(N)c(N3CCCC3)cc21`, the figure is 0.12 µg/mL (≈ 0.364 µM); as for `N#CCN1CCN(c2cc3c(cc2N)c(=O)c(C(=O)O)cn3C2CC2)CC1`, 2 µg/mL (≈ 5.44 µM).
For the molecule `Nc1cc2c(=O)c(C(=O)O)cn(C3CC3)c2cc1N1CCNCC1`, the MIC came to 0.25 µg/mL (≈ 0.761 µM).
`O=C(O)c1cn(C2CC2)c2cc(N3CCNCC3)c(F)cc2c1=O` [CIPROFLOXACIN] yielded a minimal inhibitory concentration (MIC) of 0.03 µg/mL (≈ 0.0905 µM).

A further experiment concerns Providencia stuartii. The experiment in a line: Tested in vitro for inhibitory activity against gram negative bacteria Providencia stuartii CNUR 5 strain. The format is functional.
Consider `CN1CCN(c2nc3c(c(N)c2N)c(=O)c(C(=O)O)cn3C2CC2)CC1`, for which inhibition of growth (MIC) required 0.5 µg/mL (≈ 1.4 µM).
`CC(C)(C)n1cc(C(=O)O)c(=O)c2cc(N)c(N3CCCC3)cc21` returned a minimum inhibitory concentration (MIC) of 64 µg/mL (≈ 194 µM).
On to `N#CCN1CCN(c2cc3c(cc2N)c(=O)c(C(=O)O)cn3C2CC2)CC1`, for which the minimal inhibitory concentration (MIC) turned out to be 2 µg/mL (≈ 5.44 µM).
Still for that read-out and setting: the result for `Nc1cc2c(=O)c(C(=O)O)cn(C3CC3)c2cc1N1CCNCC1` reads 32 µg/mL (≈ 97.5 µM); that for `O=C(O)c1cn(C2CC2)c2cc(N3CCNCC3)c(F)cc2c1=O` [CIPROFLOXACIN], 0.06 µg/mL (≈ 0.181 µM).

Another experiment concerns Pseudomonas aeruginosa. The experiment in a line: Tested in vitro for inhibitory activity against gram negative bacteria Pseudomonas aeruginosa ATCC 9027 strain. It is filed as functional.
Consider `CN1CCN(c2nc3c(c(N)c2N)c(=O)c(C(=O)O)cn3C2CC2)CC1`, for which the minimal inhibitory concentration (MIC) came out at 8 µg/mL (≈ 22.3 µM).
`CC(C)(C)n1cc(C(=O)O)c(=O)c2cc(N)c(N3CCCC3)cc21` displayed a minimum inhibitory concentration (MIC) of 64 µg/mL (≈ 194 µM).
Still for that read-out and setting: the result for `N#CCN1CCN(c2cc3c(cc2N)c(=O)c(C(=O)O)cn3C2CC2)CC1` reads 64 µg/mL (≈ 174 µM).
On the same count and under the same terms, the result for `Nc1cc2c(=O)c(C(=O)O)cn(C3CC3)c2cc1N1CCNCC1` reads 2 µg/mL (≈ 6.09 µM); that for `O=C(O)c1cn(C2CC2)c2cc(N3CCNCC3)c(F)cc2c1=O` [CIPROFLOXACIN], 0.06 µg/mL (≈ 0.181 µM).
